Measurements: patent US20080293727A1, “Novel sulfonamide inhibitors of aspartyl protease” (priority 1992, published 2008)
pKi: −log10 of the molar value.

The compounds below were run against HIV-1 protease (Human immunodeficiency virus type 1 group M subtype B, UniProt P04585) (assay: Inhibition constants against HIV-1 protease (method of Pennington et al.)). Conditions: HIV-1 protease; read-out: Ki value.
Assay type: biochemical
Excerpt: We measured the inhibition constants of the compounds listed in Table VII against HIV-1 protease using the above-cited method of Pennington et al.

Q: `CC(C)CN(C[C@@H](O)[C@H](Cc1ccccc1)NC(=O)OCc1cccnc1)S(=O)(=O)c1ccc2nonc2c1` [Compound 82] was tested. Which pKi did it give?
A: 8.82

Q: `CC(C)(C)OC(=O)N[C@@H](Cc1ccccc1)[C@H](O)CN(CC1CCCC1)S(=O)(=O)c1ccc(Cl)c(Cl)c1` [Compound 84] was tested. Which pKi did it give?
A: 8.85

Q: How did the pKi turn out when `CC(=O)Nc1cc(S(=O)(=O)N(CC(C)C)C[C@@H](O)[C@H](Cc2ccccc2)NC(=O)O[C@H]2CCOC2)ccc1F` [Compound 88, N-(2-Fluoro-5-(((2 syn,3S)-2-hydroxy-4-phenyl-3-((S)-tetrahydrofuran-3-yloxycarbonylamino)-butyl)-isobutyl-sulfamoyl)-phenyl)-acetamide] was run?
A: 8.85

Q: `CCCOC(=O)N[C@@H](Cc1ccccc1)[C@H](O)CN(CC(C)C)S(=O)(=O)c1ccc(Cl)c(Cl)c1` [Compound 89] was tested. Which pKi did it give?
A: 8.70

Q: With `CCCOC(=O)N[C@@H](Cc1ccccc1)[C@H](O)CN(CC(C)C)S(=O)(=O)c1ccc(NC(C)=O)c(Cl)c1` [Compound 90] as the compound, how does the pKi read?
A: 7.03

Q: How did the pKi turn out when `CC(=O)Nc1cccc(S(=O)(=O)N(CC(C)C)C[C@@H](O)[C@H](Cc2ccccc2)NC(=O)O[C@H]2CCOC2)c1` [Compound 91, N-(3-(((2 syn,3S)-2-Hydroxy-4-phenyl-3-((S)-tetrahydrofuran-3-yloxycarbonylamino)-butyl)-isobutyl-sulfamoyl)-phenyl)-acetamide] was run?
A: 8.60

Q: With `CC(C)CN(C[C@@H](O)[C@H](Cc1ccccc1)NC(=O)O[C@@H]1CCOC1)S(=O)(=O)c1ccc(F)cc1` [Compound 93, 4-Fluoro-N-((2 syn,3S)-2-hydroxy-4-phenyl-3-((R)-tetrahydrofuran-3-yloxycarbonylamino)-butyl)-N-isobutyl-benzenesulfonamide] as the compound, how does the pKi read?
A: 9.10

Q: With `CC(=O)Nc1ccc(S(=O)(=O)N(CC(C)C)C[C@@H](O)[C@H](Cc2ccccc2)NC(=O)O[C@@H]2CCOC2)cc1` [Compound 94, N-(4-(((syn)-2-Hydroxy-(S)-4-phenyl-3-((tetrahydro-furan-(R)-3-yl)-oxycarbonylamino)-butyl)-isobutyl-sulfamoyl)-phenyl)-acetamide] as the compound, how does the pKi read?
A: 8.77

Q: With `CC(C)CN(C[C@@H](O)[C@H](Cc1ccccc1)NC(=O)O[C@H]1CCOC1)S(=O)(=O)c1cc(Cl)c(Cl)s1` [Compound 95] as the compound, how does the pKi read?
A: 8.89

Q: `CC(=O)Nc1ccc(COC(=O)N[C@@H](Cc2ccccc2)[C@H](O)CN(CC(C)C)S(=O)(=O)c2ccc(NC(C)=O)cc2)cc1` [Compound 96] was tested. Which pKi did it give?
A: 8.10

Q: With `CC(C)CN(C[C@@H](O)[C@H](Cc1ccccc1)NC(=O)OCc1cccnc1)S(=O)(=O)c1ccc(F)cc1` [Compound 98, 4-Fluoro-N-((2 syn,3S)-2-hydroxy-4-phenyl-3-(pyridin-3-yl-methoxycarbonylamino)-butyl)-N-isobutyl-benzenesulfonamide] as the compound, how does the pKi read?
A: 9.30

Q: `CC(C)CN(C[C@@H](O)[C@H](Cc1ccccc1)NC(=O)O[C@H]1CCOC1)S(=O)(=O)c1ccc(Cl)cc1` [Compound 99, 4-Chloro-N-((2 syn,3S)-2-hydroxy-4-phenyl-3-((S)-tetrahydrofuran-3-yloxycarbonylamino)-butyl)-isobutyl-benzenesulfonamide] was tested. Which pKi did it give?
A: 9.62

Q: How did the pKi turn out when `COc1ccc(S(=O)(=O)N(CC(C)C)C[C@@H](O)[C@H](Cc2ccccc2)NC(=O)O[C@H]2CCOC2)cc1` [Compound 100, N-((2 syn,3S)-2-Hydroxy-4-phenyl-3-((S)-tetrahydrofuran-3-yloxycarbonylamino)-butyl)-N-isobutyl-4-methoxy-benzenesulfonamide] was run?
A: 9.80

Q: With `CC(=O)Nc1ccc(S(=O)(=O)N(C)C[C@@H](O)[C@H](Cc2ccccc2)NC(=O)O[C@H]2CCOC2)cc1` [Compound 101] as the compound, how does the pKi read?
A: 6.60

Q: With `COC(=O)N[C@@H](Cc1ccccc1)[C@H](O)CN(CC(C)C)S(=O)(=O)c1ccc(NC(C)=O)cc1` [Compound 102] as the compound, how does the pKi read?
A: 7.48

Q: With `COC(=O)N[C@@H](Cc1ccccc1)[C@H](O)CN(CC(C)C)S(=O)(=O)c1ccc(Cl)c(Cl)c1` [Compound 103] as the compound, how does the pKi read?
A: 8.35

Q: How did the pKi turn out when `COC(=O)N[C@@H](Cc1ccccc1)[C@H](O)CN(CC(C)C)S(=O)(=O)c1ccc(F)cc1` [Compound 104] was run?
A: 8.26

Q: `C=C(C)COC(=O)N[C@@H](Cc1ccccc1)[C@H](O)CN(CC(C)C)S(=O)(=O)c1ccc(NC(C)=O)cc1` [Compound 105] was tested. Which pKi did it give?
A: 8.12

Q: With `C=C(C)COC(=O)N[C@@H](Cc1ccccc1)[C@H](O)CN(CC(C)C)S(=O)(=O)c1ccc(Cl)c(Cl)c1` [Compound 106] as the compound, how does the pKi read?
A: 8.85

Q: With `C=C(C)COC(=O)N[C@@H](Cc1ccccc1)[C@H](O)CN(CC(C)C)S(=O)(=O)c1ccc(F)cc1` [Compound 107] as the compound, how does the pKi read?
A: 8.85

Q: With `CC(C)CN(C[C@@H](O)[C@H](Cc1ccccc1)NC(=O)OC[C@@H]1COC(=O)N1)S(=O)(=O)c1ccc(F)cc1` [Compound 109, 4-Fluoro-N-(2-(syn)-hydroxy-3-((2-oxazolidon-(S)-4-yl)-methoxycarbonylamino)-4-(S)-phenyl-butyl)-N-isobutyl-benzenesulfonamide] as the compound, how does the pKi read?
A: 8.22

Q: How did the pKi turn out when `CC(=O)Nc1ccc(S(=O)(=O)N(CC(C)C)CC(O)C(Cc2ccccc2)NC(=O)OCC2COC(=O)N2)cc1` (stereo not shown) [Compound 110] was run?
A: 7.55

Q: `O=C(N[C@@H](Cc1ccccc1)[C@H](O)CN(CC1CCCC1)S(=O)(=O)c1ccc(F)cc1)OCc1cccnc1` [Compound 111] was tested. Which pKi did it give?
A: 9.52

Q: `CC(C)CN(C[C@@H](O)[C@H](Cc1ccccc1)NC(=O)O[C@H]1CCOC1)S(=O)(=O)c1cccc(S(N)(=O)=O)c1` [Compound 112, Benzene-1,3-disulfonic acid 1-amide 3-((2 syn,3S)-2-hydroxy-4-phenyl-3-(3-(S)-tetrahydrofuran-3-yloxycarbonylamino)-butyl)-isobutyl-amide] was tested. Which pKi did it give?
A: 8.40

Q: `CC(C)CN(C[C@@H](O)[C@H](Cc1ccccc1)NC(=O)O[C@H]1CCOC1)S(=O)(=O)c1ccoc1` [Compound 113] was tested. Which pKi did it give?
A: 8.52

Q: How did the pKi turn out when `C=CCOC(=O)N[C@@H](Cc1ccccc1)[C@H](O)CN(CC1CCCC1)S(=O)(=O)c1ccc(F)cc1` [Compound 114, N-((3-Allyloxycarbonylamino)-(2 syn,3S)-2-hydroxy-4-phenyl-butyl)-N-cyclopentylmethyl-4-fluoro-benzenesulfonamide] was run?
A: 9.46

Q: `CCOC(=O)N[C@@H](Cc1ccccc1)[C@H](O)CN(CC1CCCC1)S(=O)(=O)c1ccc(F)cc1` [Compound 115, N-Cyclopentylmethyl-N-((3-ethoxycarbonylamino)-(2 syn,3S)-2-hydroxy-4-phenyl-butyl)-4-fluoro-benzenesulfonamide] was tested. Which pKi did it give?
A: 9.30

Q: How did the pKi turn out when `O=C(N[C@@H](Cc1ccccc1)[C@H](O)CN(CC1CCCC1)S(=O)(=O)c1ccc(Cl)cc1)O[C@H]1CCOC1` [Compound 116, 4-Chloro-N-cyclopentylmethyl-N-((2 syn,3S)-2-hydroxy-4-phenyl-3-((S)-tetrahydrofuran-3-yloxycarbonylamino)-butyl)-benzenesulfonamide] was run?
A: > 10.00

Q: `C=CCOC(=O)N[C@@H](Cc1ccccc1)[C@H](O)CN(CC1CCCC1)S(=O)(=O)c1ccc(Cl)cc1` [Compound 117] was tested. Which pKi did it give?
A: 9.59

Q: How did the pKi turn out when `O=C(N[C@@H](Cc1ccccc1)[C@H](O)CN(CC1CCCC1)S(=O)(=O)c1ccc(Cl)cc1)OCc1cccnc1` [Compound 118] was run?
A: > 10.00

Q: `CCOC(=O)N[C@@H](Cc1ccccc1)[C@H](O)CN(CC(C)C)S(=O)(=O)c1ccc(Cl)c(Cl)c1` [Compound 119] was tested. Which pKi did it give?
A: 8.74

Q: How did the pKi turn out when `CCOC(=O)N[C@@H](Cc1ccccc1)[C@H](O)CN(CC(C)C)S(=O)(=O)c1ccc(NC(C)=O)cc1` [Compound 120] was run?
A: 7.96

Q: How did the pKi turn out when `CCOC(=O)N[C@@H](Cc1ccccc1)[C@H](O)CN(CC(C)C)S(=O)(=O)c1ccc(F)cc1` [Compound 121] was run?
A: 8.70

Q: How did the pKi turn out when `C=CCOC(=O)N[C@@H](Cc1ccccc1)[C@H](O)CN(CC(C)C)S(=O)(=O)c1ccc(F)cc1` [Compound 122] was run?
A: 8.92

Q: `COc1ccc(S(=O)(=O)N(CC(C)C)C[C@@H](O)[C@H](Cc2ccccc2)NC(=O)O[C@H]2CCOC2)cc1OC` [Compound 123] was tested. Which pKi did it give?
A: 8.00

Q: How did the pKi turn out when `CC(C)CN(C[C@@H](O)[C@H](Cc1ccccc1)NC(=O)O[C@H]1CCOC1)S(=O)(=O)c1ccc(F)c(F)c1` [Compound 124] was run?
A: 8.96

Q: `CC(=O)Nc1ccc(S(=O)(=O)N(CC2CCCC2)C[C@@H](O)[C@H](Cc2ccccc2)NC(=O)O[C@H]2CCOC2)cc1` [Compound 125, N-(4-(Cyclopentylmethyl-((2 syn,3S)-2-hydroxy-4-phenyl-3-((S)-tetrahydrofuran-3-yloxycarbonylamino)-butyl)-sulfamoyl)-phenyl)-acetamide] was tested. Which pKi did it give?
A: 9.52

Q: `CN(C[C@@H](O)[C@H](Cc1ccccc1)NC(=O)OC(C)(C)C)S(=O)(=O)c1ccc(Cl)c(Cl)c1` [Compound 126] was tested. Which pKi did it give?
A: 6.51

Q: How did the pKi turn out when `CN(C[C@@H](O)[C@H](Cc1ccccc1)NC(=O)OC(C)(C)C)S(=O)(=O)c1ccc(F)cc1` [Compound 127] was run?
A: 6.19

Q: `CC(=O)Nc1ccc(S(=O)(=O)N(C)C[C@@H](O)[C@H](Cc2ccccc2)NC(=O)OC(C)(C)C)cc1` [Compound 128] was tested. Which pKi did it give?
A: < 5.30

Q: `CC(C)(C)OC(=O)NC(Cc1ccccc1)C(O)CN(CC1CCCO1)S(=O)(=O)c1ccc(F)cc1` (stereo not shown) [Compound 129] was tested. Which pKi did it give?
A: 7.72

Q: `C=C(C)CN(C[C@@H](O)[C@H](Cc1ccccc1)NC(=O)OC(C)(C)C)S(=O)(=O)c1ccc(F)cc1` [Compound 130] was tested. Which pKi did it give?
A: 7.85

Q: `C=C(C)CN(C[C@@H](O)[C@H](Cc1ccccc1)NC(=O)OC(C)(C)C)S(=O)(=O)c1ccc(NC(C)=O)cc1` [Compound 131] was tested. Which pKi did it give?
A: 7.22

Q: `O=C(NC(Cc1ccccc1)C(O)CN(CC1CCCO1)S(=O)(=O)c1ccc(F)cc1)OC1CCOC1` (stereo not shown) [Compound 132] was tested. Which pKi did it give?
A: 8.22

Q: `CC(=O)Nc1ccc(S(=O)(=O)N(CC2CCCO2)CC(O)C(Cc2ccccc2)NC(=O)OC2CCOC2)cc1` (stereo not shown) [Compound 133] was tested. Which pKi did it give?
A: 7.62

Q: With `C=C(C)CN(C[C@@H](O)[C@H](Cc1ccccc1)NC(=O)O[C@H]1CCOC1)S(=O)(=O)c1ccc(NC(C)=O)cc1` [Compound 134] as the compound, how does the pKi read?
A: 8.08

Q: With `C=C(C)CN(C[C@@H](O)[C@H](Cc1ccccc1)NC(=O)O[C@H]1CCOC1)S(=O)(=O)c1ccc(F)cc1` [Compound 135] as the compound, how does the pKi read?
A: 8.57

Q: How did the pKi turn out when `O=C(N[C@@H](Cc1ccccc1)[C@H](O)CN(Cc1ccco1)S(=O)(=O)c1ccc(F)cc1)O[C@H]1CCOC1` [Compound 136] was run?
A: 7.74

Q: How did the pKi turn out when `CC(=O)Nc1ccc(S(=O)(=O)N(Cc2ccco2)C[C@@H](O)[C@H](Cc2ccccc2)NC(=O)O[C@H]2CCOC2)cc1` [Compound 137] was run?
A: 7.59
